Data reported in PMC7108740, “Exploring the molecular structures that confer ligand selectivity for galanin type II and III receptors” (PLoS ONE, 2020).
Substitutions are numbered along the chain they refer to. Ends that are not written are not given here.

Key:
[1] = target: T1, GALR3 (Homo sapiens, UniProt O60755); assay: SRE-luc luciferase assay, WT GALR3; type: cell-based; set-up: host or cells: HEK293 cells stably expressing Gqi; settings: SRE-luc in HEK293 Gqi cells, ligand 6 h, mean ± SE, at least three independent experiments, SEM
T1 sequence (O60755 1-368): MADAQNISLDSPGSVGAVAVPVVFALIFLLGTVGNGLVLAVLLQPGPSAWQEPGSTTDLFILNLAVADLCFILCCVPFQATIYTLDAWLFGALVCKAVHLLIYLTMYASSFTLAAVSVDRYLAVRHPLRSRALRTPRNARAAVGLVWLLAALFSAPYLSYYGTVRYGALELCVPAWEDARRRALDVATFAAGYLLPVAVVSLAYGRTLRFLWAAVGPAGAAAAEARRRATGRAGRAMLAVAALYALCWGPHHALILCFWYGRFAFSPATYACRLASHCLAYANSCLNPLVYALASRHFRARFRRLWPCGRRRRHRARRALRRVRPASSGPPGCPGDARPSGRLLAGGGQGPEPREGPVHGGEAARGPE
Text: The pcDNA3.1 vector was purchased from Invitrogen (San Diego, CA, USA). The serum response element (SRE)-luciferase (SRE-luc) vector containing a single copy of the SRE (CCATATTAGG) conjugated with luciferase was purchased from Stratagene (La Jolla, CA, USA). The cDNAs for human GALR1, GALR2, and GALR3 were obtained from BRN SCIENCE, Inc. The cDNAs were inserted into the EcoRⅠ and XhoⅠ sites of pcDNA3.1.
HEK293 cells stably expressing the Gqi construct, which allows induction of Gq-dependent signaling pathways upon activation of a Gi-coupled receptor [14, 30], were maintained in Dulbecco's Modified Eagle's Medium (DMEM) in the presence of 10% fetal bovine serum and 1% penicillin and streptomycin. For all transfections, 200 ng DNA (100 ng receptor and 100 ng SRE-luc) mixed with lipofectamine 2000 was applied to 60–80% confluent cells on a multi-well plate according to the manufacturer's instructions (Invitrogen, Carlsbad, CA).
For luciferase assays, HEK293 Gqi cells were seeded on 48-well plates at a density of 2.5 × 10^4 cells/well one day before transfection. A mixture including 100 ng SRE-luc reporter construct, 100 ng expression plasmid, and lipofectamine 2000 reagent in diluted Opti-MEM (Gibco) was incubated at room temperature for 20 min and then added into each well according to the manufacturer's instructions (Invitrogen, CA, USA). Before exposure to the ligands, the cells were maintained in serum-free DMEM for 16–18 h. Approximately 48 h after transfection, the cells were treated with ligand for 6 h. The cells were then lysed by the addition of 100 μl lysis buffer. The luciferase activity in 50 μl cell extract was determined using a luciferase assay system according to the standard protocol for the Synergy 2 Multi-Mode Microplate Reader (BioTek, Winooski, VT, USA).
Data analysis was performed by non-linear regression with a sigmoidal dose-response curve. The concentrations of agonists that induced half-maximal stimulation (EC50) were calculated using the GraphPad PRISM5 software (GraphPad software, Inc., San Diego, CA). All data are presented as the mean ± standard error (SE) of at least three independent experiments.

[2] = target: T2, GALR3 triple mutant L^100F, Y^103F, Y^107H (Homo sapiens, UniProt O60755, L100F/Y103F/Y107H); assay: SRE-luc luciferase assay, GALR3 L100F,Y103F,Y107H; type: cell-based; settings: GALR3 L^100F, SRE-luc in HEK293 Gqi cells, ligand 6 h, mean ± S.E., SEM
T2 construct: expressed in transfected cells; host or cells: HEK293 cells stably expressing Gqi
T2 sequence (O60755 1-368 L100F/Y103F/Y107H): T1 sequence (O60755 1-368) with L100F, Y103F, Y107H
Text: For domain swapping between GALR2 and GALR3, individual cDNA fragments of interest were amplified by polymerase chain reaction (PCR) with Pfu polymerase (ELPIS Biotech, Daejeon, Korea) and two specific primers, one corresponding to the 5' or 3' end of the GALR2 or GALR3 cDNA and the other to the region of overlap between the two receptors. The two resulting fragments, one from GALR2 and the other from GALR3, were subjected to a second round of PCR to generate the chimeric cDNAs. To construct single, double-, triple-, pentuple-, hextuple-, and septuple-mutant receptors, amino acids of GALR3 were substituted for the amino acids at the corresponding positions in GALR2 using PCR-based site-directed mutagenesis. All of the chimeric constructs were cloned into the pcDNA3 expression vector at HindⅢ and XbaⅠ sites. The DNA sequences of the chimeras were verified by automatic sequencing. HEK293 cells stably expressing the Gqi construct, which allows induction of Gq-dependent signaling pathways upon activation of a Gi-coupled receptor [14, 30], were maintained in Dulbecco's Modified Eagle's Medium (DMEM) in the presence of 10% fetal bovine serum and 1% penicillin and streptomycin. For all transfections, 200 ng DNA (100 ng receptor and 100 ng SRE-luc) mixed with lipofectamine 2000 was applied to 60–80% confluent cells on a multi-well plate according to the manufacturer's instructions (Invitrogen, Carlsbad, CA). For luciferase assays, HEK293 Gqi cells were seeded on 48-well plates at a density of 2.5 × 10^4 cells/well one day before transfection. […] The luciferase activity in 50 μl cell extract was determined using a luciferase assay system according to the standard protocol for the Synergy 2 Multi-Mode Microplate Reader (BioTek, Winooski, VT, USA). […] The concentrations of agonists that induced half-maximal stimulation (EC50) were calculated using the GraphPad PRISM5 software (GraphPad software, Inc., San Diego, CA). […]

| EC50 [1] | EC50 [2] | Molecule |
| --- | --- | --- |
| 115 nM | 30.9 ± 9.03 nM | CSCC[C@H](NC(=O)[C@H](C)NC(=O)[C@H](CCC(N)=O)NC(=O)[C@@H]1CCCN1C(=O)[C@@H](NC(=O)[C@H](Cc1c[nH]c2ccccc12)NC(=O)[C@@H](N)CC(N)=O)[C@@H](C)O)C(=O)N[C@@H](CC(C)C)C(=O)N[C@@H](Cc1ccc(O)cc1)C(=O)N[C@@H](CC(C)C)C(=O)N[C@@H](CCCCN)C(=O)NCC(=O)N[C@@H](C)C(=O)N[C@@H](CCC(N)=O)C(N)=O [SPX, reference compound] |
| 398 ± 96.1 nM | 83.2 ± 26.9 nM | NWTPNAMLYLKGAQ-NH2 [N^5-SPX] |
|  | 64.6 ± 12.1 nM | NWTPQAALYLKGAQ-NH2 [A^7-SPX] |
| 333 ± 55.7 nM |  | NWTPQAMLYLKGPQ-NH2 [P^13-SPX] |
